US20260250318A1, “COMPOSITIONS AND METHODS FOR CROSSING THE BLOOD BRAIN BARRIER” (VOYAGER THERAPEUTICS, INC., priority 2022, published 2026)

Legend:
[1] = test system: brains, heart, liver, muscle, and DRG of the NHPs; experiment: Maturation of TTM-001 and TTM-002 capsids, NGS enrichment in NHP tissues; format: in vivo; details: relative to AAV9 control
In short: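 Variants carry mutations within and flanking the loop IV peptide insert: positions 450–466 were triplet-randomized, while positions 449–466 received low-frequency point mutations. The combined pool went into two NHPs, and each peptide was scored by NGS enrichment ratio against AAV9.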

[2] = test system: brain; experiment: Matured TTM-001 and TTM-002 variants, NGS enrichment in mouse brain; format: in vivo, mice; details: relative to AAV9 control
[3] = NGS fold-enrichment of RNA, NHP brain
[4] = NGS fold-enrichment, DRG of NHPs
[5] = NGS fold-enrichment, NHP liver DNA
[6] = NGS fold-enrichment, NHP liver RNA
[7] = NGS fold-enrichment, NHP muscle
[8] = NGS fold-enrichment, RNA, brain of NHPs
[9] = NGS fold-enrichment, heart of NHPs
[10] = NGS fold-enrichment, liver DNA of NHPs
[11] = NGS fold-enrichment, liver RNA of NHPs
[12] = NGS fold-enrichment, muscle of NHPs
[13] = NGS fold-enrichment, brain of mice
[14] = NGS fold-enrichment, mouse brain
[15] = NGS fold-enrichment of matured AAV capsid variants, NHP brain, RNA

Sequence | Fold Enrichment relative to AAV9, Brain (NHP) [1, 3] [fold] | Fold Enrichment relative to AAV9, DRG (NHP) [1, 4] [fold] | Fold Enrichment relative to AAV9, DRG (NHP) ([1]; NGS fold-enrichment, NHP DRG) [fold] | Fold Enrichment relative to AAV9, Heart (NHP) ([1]; NGS fold-enrichment, NHP heart) [fold] | Fold Enrichment relative to AAV9, Liver DNA (NHP) [1, 5] [fold] | Fold Enrichment relative to AAV9, Liver RNA (NHP) [1, 6] [fold] | Fold Enrichment relative to AAV9, Muscle (NHP) [1, 7] [fold] | Fold Enrichment relative to AAV9, Brain (NHP) [1, 8] [fold] | Fold Enrichment relative to AAV9, Heart (NHP) [1, 9] [fold] | Fold Enrichment relative to AAV9, Liver DNA (NHP) [1, 10] [fold] | Fold Enrichment relative to AAV9, Liver RNA (NHP) [1, 11] [fold] | Fold Enrichment relative to AAV9, Muscle (NHP) [1, 12] [fold] | Fold Enrichment relative to AAV9, Brain (Mouse) [2, 13] [fold] | Fold Enrichment relative to AAV9, Brain (Mouse) [2, 14] [fold] | Fold Enrichment relative to AAV9, Brain (NHP) [1, 15] [fold] | Fold Enrichment relative to AAV9, DRG (NHP) ([1]; NHP DRG) [fold] | Fold Enrichment relative to AAV9, Heart (NHP) ([1]; NHP heart) [fold] | Fold Enrichment relative to AAV9, Liver DNA (NHP) ([1]; NHP liver, DNA) [fold] | Fold Enrichment relative to AAV9, Liver RNA (NHP) ([1]; NHP liver, RNA) [fold] | Fold Enrichment relative to AAV9, Muscle (NHP) ([1]; NHP muscle) [fold] | other results
KTIDGGGSPHSKAQNKQT | 85.019 | 0.000 | 0.000 | 0.000 | 0.477 | 0.000 | 0.000 | 85.019 | 0.000 | 0.477 | 0.000 | 0.000 | 55.517 | 55.517 | – | – | – | – | – | – | –
KAEHGSGSPHSKAQNQQT | – | 0.000 | – | – | – | – | – | 61.830 | 0.000 | 0.184 | 0.772 | 0.000 | 116.201 | – | – | – | – | – | – | – | –
KTINGSGSPHSYHVNQQT | – | – | – | – | – | – | – | – | – | – | – | – | – | – | 50.486 | 0.000 | 0.056 | 0.275 | 0.528 | 0.059 | Fold Enrichment relative to AAV9, Brain (Mouse) ([2]; mouse brain): 179.489 fold
KTIPKNGSPHSKAQNQQT | – | – | – | – | – | – | – | – | – | – | – | – | – | – | 53.824 | 0.000 | 0.032 | 0.178 | 0.115 | 0.000 | Fold Enrichment relative to AAV9, Brain (Mouse) ([2]; mouse brain): 77.458 fold
KTINGHESPHKSGQNQHS | 92.248 | – | 0.000 | 0.032 | 0.088 | 0.090 | 0.012 | – | – | – | – | – | – | 9.720 | – | – | – | – | – | – | –
KTINGSGSPHSKSQTQQN | 104.474 | 0.000 | 0.000 | 0.131 | 0.038 | 0.084 | 0.000 | 104.474 | 0.131 | 0.038 | 0.084 | 0.000 | 54.021 | 54.021 | – | – | – | – | – | – | –
KTINGHESPHKSGRSQQT | 97.106 | – | 0.000 | 3.329 | 0.181 | 0.000 | 0.022 | – | – | – | – | – | – | 9.378 | – | – | – | – | – | – | –
KSVNGNGSPHSKAQNQQT | 99.385 | 0.000 | 0.000 | 1.329 | 0.079 | 0.359 | 0.000 | 99.385 | 1.329 | 0.079 | 0.359 | 0.000 | 51.016 | 51.016 | – | – | – | – | – | – | –
KGVLGSGSPHSKAQNQQT | – | – | – | – | – | – | – | – | – | – | – | – | – | – | 54.472 | 0.000 | 0.007 | 0.189 | 0.359 | 0.027 | Fold Enrichment relative to AAV9, Brain (Mouse) ([2]; mouse brain): 145.740 fold
KTTNGHDSPHKSGQNQQG | 85.113 | – | 0.000 | 0.107 | 0.017 | 0.000 | 0.000 | – | – | – | – | – | – | 10.555 | – | – | – | – | – | – | –
KTINGHDSPHKSNAWQQT | 84.825 | – | 0.000 | 0.016 | 0.132 | 0.000 | 0.000 | – | – | – | – | – | – | 15.788 | – | – | – | – | – | – | –
KVINGSGSPHSKGQNQQT (peptide inserted in AAV capsid) | – | 0.000 | – | – | – | – | – | 60.001 | 0.000 | 0.157 | 0.264 | 0.031 | 68.532 | – | – | – | – | – | – | – | –
KTVNGSGSPHSKAQHLQT | – | – | – | – | – | – | – | – | – | – | – | – | – | – | 55.739 | 0.091 | 0.036 | 0.409 | 0.062 | 0.000 | Fold Enrichment relative to AAV9, Brain (Mouse) ([2]; mouse brain): 62.743 fold
KTINGGGSPHSKSQNRQT | – | – | – | – | – | – | – | – | – | – | – | – | – | – | 51.017 | 0.000 | 0.000 | 0.421 | 0.000 | 0.000 | Fold Enrichment relative to AAV9, Brain (Mouse) ([2]; mouse brain): 149.370 fold
KTINGSGSPHSKAGDSQT | – | – | – | – | – | – | – | – | – | – | – | – | – | – | 50.457 | 0.614 | 0.236 | 0.071 | 1.062 | 0.008 | Fold Enrichment relative to AAV9, Brain (Mouse) ([2]; mouse brain): 74.355 fold
KTIIGGGSPHSKAHNQQT | 75.872 | 0.000 | 0.000 | 0.050 | 0.235 | 0.000 | 0.000 | 75.872 | 0.050 | 0.235 | 0.000 | 0.000 | 65.492 | 65.492 | – | – | – | – | – | – | –
KTSYGNGSPHSKAQNQQT | 105.937 | 0.000 | 0.000 | 0.000 | 0.114 | 0.000 | 0.000 | 105.937 | 0.000 | 0.114 | 0.000 | 0.000 | 105.894 | 105.894 | – | – | – | – | – | – | –
KTEPMSGSPHSKAQNQQT | – | – | – | – | – | – | – | – | – | – | – | – | – | – | 50.960 | 0.203 | 0.000 | 0.415 | 1.816 | 0.000 | Fold Enrichment relative to AAV9, Brain (Mouse) ([2]; mouse brain): 126.322 fold
KTVNGHDSPHKSGQNHLT | 81.516 | – | 0.000 | 0.100 | 0.028 | 0.000 | 0.017 | – | – | – | – | – | – | 16.096 | – | – | – | – | – | – | –
